According to US9629830B2, “EphA4 inhibitors as neuroprotective agents” (The Hong Kong University of Science and Technology, priority 2013, dated 2017):
Entries after “also recorded” stand apart in the source; their conditions may differ.

What follows are compounds tested against T1, EphA4 (Rattus norvegicus, UniProt D3ZZK3) (assay: Ephrin-A1-induced EphA4 cluster assay in cultured hippocampal neurons). Details: 30 μM.
T1 construct: endogenous in cells; host or cells: primary rat cortical neurons (A5), primary rat hippocampal neurons (A7)
Type: cell-based
Experimental: For EphA4 clustering, neurons were stained with anti-EphA4 and anti-Tau-1 antibodies. For the growth cone collapse assay, neurons were stained with Alexa Fluor 555-conjugated phalloidin (Molecular Probes) for filamentous actin and anti-Tau-1 antibody for axons. Collapsed growth cones were scored in a double-blinded manner. The experiments were repeated at least 3 times, and >50 neurons were analyzed for each experiment. Data are presented as mean±SEM.
Rat hippocampal neurons were seeded on 48-well plates coated with poly-D-lysine (50 μg/mL) at 6000 cells per well. Neurons were incubated with Neurobasal medium (Invitrogen) supplemented with 2% B27 (Invitrogen). […] Neurons were then immunostained with anti-EphA4 and anti-Tau-1 antibodies. The cellular imaging and quantification of EphA4 clusters was performed using IN Cell Analyzer 6000 high content assay system (GE Healthcare). EphA4 clusters were quantified by calculating the proportion of total area of EphA4 clusters on axons against Tau positive area. Statistical analysis was performed with one-way ANOVA followed by Newman-Keuls Multiple Comparison Test (Prism 5 GraphPad Software).

T1 sequence (D3ZZK3 20-986): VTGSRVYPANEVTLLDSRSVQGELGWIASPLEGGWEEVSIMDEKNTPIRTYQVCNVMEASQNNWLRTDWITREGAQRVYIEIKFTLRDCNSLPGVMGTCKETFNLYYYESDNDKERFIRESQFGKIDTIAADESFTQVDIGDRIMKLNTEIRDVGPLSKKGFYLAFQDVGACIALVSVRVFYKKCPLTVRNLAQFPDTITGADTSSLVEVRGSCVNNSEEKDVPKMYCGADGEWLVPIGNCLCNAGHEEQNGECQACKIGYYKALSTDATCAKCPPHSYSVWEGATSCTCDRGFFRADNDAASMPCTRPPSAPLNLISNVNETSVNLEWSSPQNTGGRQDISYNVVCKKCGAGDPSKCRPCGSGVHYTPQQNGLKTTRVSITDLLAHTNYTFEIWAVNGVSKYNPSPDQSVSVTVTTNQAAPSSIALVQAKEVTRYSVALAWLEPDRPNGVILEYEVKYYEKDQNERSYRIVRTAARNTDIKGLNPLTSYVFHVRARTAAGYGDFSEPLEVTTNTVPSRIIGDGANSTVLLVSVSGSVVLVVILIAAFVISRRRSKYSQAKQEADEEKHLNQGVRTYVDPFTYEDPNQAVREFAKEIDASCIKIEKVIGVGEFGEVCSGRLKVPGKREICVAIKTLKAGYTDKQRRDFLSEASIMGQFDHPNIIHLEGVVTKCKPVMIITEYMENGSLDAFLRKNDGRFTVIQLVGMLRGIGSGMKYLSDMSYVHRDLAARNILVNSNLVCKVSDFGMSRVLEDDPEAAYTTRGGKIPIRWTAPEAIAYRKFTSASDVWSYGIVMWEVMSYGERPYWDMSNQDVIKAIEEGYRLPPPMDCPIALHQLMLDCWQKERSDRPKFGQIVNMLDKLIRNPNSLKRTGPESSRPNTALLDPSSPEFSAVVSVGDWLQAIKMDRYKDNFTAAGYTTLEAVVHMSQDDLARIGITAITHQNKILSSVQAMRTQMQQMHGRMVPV

Structure (SMILES) | potency on EphA4 inhibition (EphA4 clusters) compared to Rhy (words)
CCC1CN2CCC3(C(=O)N(CCCCCCCCOc4ccc(O)cc4)c4ccccc43)C2CC1C(=COC)C(=O)OC (centres unmarked) [RHY-54] | significantly more potent than Rhy; also recorded: more potent effect on EphA4 inhibition than Rhy
CC[C@H]1CN2CC[C@]3(C(=O)N(CCCCCCCOC(=O)c4cc(OC)ccc4[N+](=O)[O-])c4ccccc43)[C@@H]2C[C@@H]1/C(=C\OC)C(=O)OC [RHY-45] | more potent; also recorded: higher potency on EphA4 inhibition than Rhy
CC[C@H]1CN2CC[C@]3(C(=O)N(CCCCCCCCOc4ccc(OC)c(OC)c4)c4ccccc43)[C@@H]2C[C@@H]1/C(=C\OC)C(=O)OC [RHY-37] | more potent effect on EphA4 inhibition than Rhy
CCC1CN2CCC3(C(=O)N(CCCCCCCCCBr)c4ccccc43)C2CC1C(=COC)C(=O)OC (centres unmarked) [RHY-31] | higher potency on EphA4 inhibition
CCC1CN2CCC3(C(=O)N(CCCCCCCCBr)c4ccccc43)C2CC1C(=COC)C(=O)OC (centres unmarked) [RHY-34] | higher potency on EphA4 inhibition
CCC1CN2CCC3(C(=O)N(CCCCCCOc4ccc(OC)c(OC)c4)c4ccccc43)C2CC1C(=COC)C(=O)OC (centres unmarked) [RHY-39] | more potent effect on EphA4 inhibition than Rhy
CCC1CN2CCC3(C(=O)N(CCCCCCCCCOc4ccc(O)cc4)c4ccccc43)C2CC1C(=COC)C(=O)OC (centres unmarked) [RHY-60] | more potent effect on EphA4 inhibition than Rhy
CC[C@H]1CN2CC[C@]3(C(=O)N(CCCCCCCCOC(=O)c4cc(OC)ccc4[N+](=O)[O-])c4ccccc43)[C@@H]2C[C@@H]1/C(=C\OC)C(=O)OC [RHY-50] | more potent; also recorded: higher potency on EphA4 inhibition than Rhy
CC[C@H]1CN2CC[C@]3(C(=O)N(CCCCCCCOc4ccc(O)cc4)c4ccccc43)[C@@H]2C[C@@H]1/C(=C\OC)C(=O)OC [RHY-48] | comparable potency to Rhy
CCC1CN2CCC3(C(=O)N(CCCCCCCCCOC(=O)C=Cc4ccc(OC)cc4)c4ccccc43)C2CC1C(=COC)C(=O)OC (centres unmarked) [RHY-59] | more potent; also recorded: higher potency on EphA4 inhibition than Rhy
CCC1CN2CCC3(C(=O)N(CCCCCCCOc4ccc(OCc5ccccc5)cc4)c4ccccc43)C2CC1C(=COC)C(=O)OC (centres unmarked) [RHY-44] | higher potency on EphA4 inhibition
CCC1CN2CCC3(C(=O)N(CCCCCCOC(=O)c4cc(OC)ccc4[N+](=O)[O-])c4ccccc43)C2CC1C(=COC)C(=O)OC (centres unmarked) [RHY-40] | more potent; also recorded: higher potency on EphA4 inhibition than Rhy
CC[C@H]1CN2CC[C@]3(C(=O)N(CCCCCBr)c4ccccc43)[C@@H]2C[C@@H]1/C(=C\OC)C(=O)OC [RHY-23] | higher potency on EphA4 inhibition
CCC1CN2CCC3(C(=O)N(CCCCCCCCCOc4ccc(OCc5ccccc5)cc4)c4ccccc43)C2CC1C(=COC)C(=O)OC (centres unmarked) [RHY-55] | higher potency on EphA4 inhibition
CCC1CN2CCC3(C(=O)N(CCCCCCCCOC(=O)c4ccc(Br)cc4I)c4ccccc43)C2CC1C(=COC)C(=O)OC (centres unmarked) [RHY-52] | More Potent Effect on EphA4 Inhibition than Rhy
CCC1CN2CCC3(C(=O)N(CCCCCCCCOc4ccc(OCc5ccccc5)cc4)c4ccccc43)C2CC1C(=COC)C(=O)OC (centres unmarked) [RHY-49] | higher potency on EphA4 inhibition
CCC1CN2CCC3(C(=O)N(CCCCCCCBr)c4ccccc43)C2CC1C(=COC)C(=O)OC (centres unmarked) [RHY-35] | higher potency on EphA4 inhibition
CCC1CN2CCC3(C(=O)N(CCCCCCBr)c4ccccc43)C2CC1C(=COC)C(=O)OC (centres unmarked) [RHY-27] | higher potency on EphA4 inhibition
CCC1CN2CCC3(C(=O)N(CCCCCCCOc4ccc(OC)c(OC)c4)c4ccccc43)C2CC1C(=COC)C(=O)OC (centres unmarked) [RHY-43] | more potent effect on EphA4 inhibition than Rhy
CC[C@H]1CN2CC[C@]3(C(=O)N(CCCCCCOc4ccc(OCc5ccccc5)cc4)c4ccccc43)[C@@H]2C[C@@H]1/C(=C\OC)C(=O)OC [RHY-42] | higher potency on EphA4 inhibition

Same assay, conditions: 30 μM, 20 min pretreatment, then ephrin-A1 40 min; some sentences add 'when compared to Rhy'

Structure (SMILES) | reduction of ephrin-A1-induced EphA4 clustering
CC[C@H]1CN2CC[C@]3(C(=O)N(CCCCCCCCCl)c4ccccc43)[C@@H]2C[C@@H]1/C(=C\OC)C(=O)OC [RHY-26] | ~80%

Same assay, conditions: 30 μM; listed as RHY60

Structure (SMILES) | potency on EphA4 inhibition (EphA4 clusters) compared to Rhy (words)
CCC1CN2CCC3(C(=O)N(CCCCCCCCCOc4ccc(O)cc4)c4ccccc43)C2CC1C(=COC)C(=O)OC (centres unmarked) [RHY-60] | significantly more potent than Rhy

Same assay, conditions: 50 μM

Structure (SMILES) | inhibitory effect on EphA4 cluster formation | potency on EphA4 inhibition (EphA4 clusters) compared to Rhy (words)
CCC1CN2CCC3(C(=O)N(Cc4cccc(Cl)c4)c4ccccc43)C2CC1C(=COC)C(=O)OC (centres unmarked) [RHY-19] | most significant | significantly reduced the EphA4 clusters compared to Rhy
CCC1CN2CCC3(C(=O)N(Cc4ccccc4-c4ccccc4)c4ccccc43)C2CC1C(=COC)C(=O)OC (centres unmarked) [RHY-10] | most significant | significantly reduced the EphA4 clusters compared to Rhy
CCC1CN2CCC3(C(=O)N(CCCCCCCOC(=O)c4ccc(OC)c(OC)c4)c4ccccc43)C2CC1C(=COC)C(=O)OC (centres unmarked) [RHY-38] | – | more potent activity than Rhy; also recorded: more potent effect on EphA4 inhibition than Rhy
CC[C@H]1CN2CC[C@]3(C(=O)N(CCCCCCCCOC(=O)c4ccc(OC)c(OC)c4)c4ccccc43)[C@@H]2C[C@@H]1/C(=C\OC)C(=O)OC [RHY-36] | – | more potent activity than Rhy; also recorded: more potent effect on EphA4 inhibition than Rhy
CCC1CN2CCC3(C(=O)N(CC=Cc4ccccc4)c4ccccc43)C2CC1C(=COC)C(=O)OC (centres unmarked) [RHY-9] | most significant | significantly reduced the EphA4 clusters compared to Rhy
CCC1CN2CCC3(C(=O)N(CCCCCCCCCNCCCCCCN)c4ccccc43)C2CC1C(=COC)C(=O)OC (centres unmarked) [RHY-32] | – | higher potency on EphA4 inhibition
CCC1CN2CCC3(C(=O)N(CCCCCCOC(=O)c4ccc(OC)c(OC)c4)c4ccccc43)C2CC1C(=COC)C(=O)OC (centres unmarked) [RHY-33] | – | comparable potency as Rhy
C=CCN1C(=O)C2(CCN3CC(CC)C(C(=COC)C(=O)OC)CC32)c2ccccc21 (centres unmarked) [RHY-17] | most significant | significantly reduced the EphA4 clusters compared to Rhy
CCC1CN2CCC3(C(=O)N(CCCCCCCCCOC(=O)c4ccc(OC)c(OC)c4)c4ccccc43)C2CC1C(=COC)C(=O)OC (centres unmarked) [RHY-57] | – | more potent activity than Rhy; also recorded: more potent effect on EphA4 inhibition than Rhy
CCC1CN2CCC3(C(=O)N(CCCCCCNCCN4CCCC4)c4ccccc43)C2CC1C(=COC)C(=O)OC (centres unmarked) [RHY-41] | – | higher potency on EphA4 inhibition
CCC1CN2CCC3(C(=O)N(CC(=O)c4ccc(OC)cc4)c4ccccc43)C2CC1C(=COC)C(=O)OC (centres unmarked) [RHY-28] | most significant | significantly reduced the EphA4 clusters compared to Rhy
CCC1CN2CCC3(C(=O)N(CCCCCCCNCCCn4ccnc4)c4ccccc43)C2CC1C(=COC)C(=O)OC (centres unmarked) [RHY-47] | – | higher potency on EphA4 inhibition
CC[C@H]1CN2CC[C@]3(C(=O)N(CCCCCCCNCCN4CCCC4)c4ccccc43)[C@@H]2C[C@@H]1/C(=C\OC)C(=O)OC [RHY-46] | – | higher potency on EphA4 inhibition

Same assay, conditions: dose-dependent experiment, FIG. 17

Structure (SMILES) | inhibitory effect on EphA4 clusters (potency) compared to Rhy
CC[C@H]1CN2CC[C@]3(C(=O)N(CCCCCCCCOc4ccc(OC)c(OC)c4)c4ccccc43)[C@@H]2C[C@@H]1/C(=C\OC)C(=O)OC [RHY-37] | 12 fold
CC[C@H]1CN2CC[C@]3(C(=O)N(CCCCCCCCCl)c4ccccc43)[C@@H]2C[C@@H]1/C(=C\OC)C(=O)OC [RHY-26] | 5 fold

Same assay, conditions: same assay system; no data given

Structure (SMILES) | potency as EphA4 inhibitor
CCC1CN2CCC3(C(=O)N(CCCCl)c4ccccc43)C2CC1C(=COC)C(=O)OC (centres unmarked) [RHY-61] | tested and verified
CCC1CN2CCC3(C(=O)N(CCCCCCCCNCCN4CCCC4)c4ccccc43)C2CC1C(=COC)C(=O)OC (centres unmarked) [RHY-53] | tested and verified
CCC1CN2CCC3(C(=O)N(CCCCCCCCCCCl)c4ccccc43)C2CC1C(=COC)C(=O)OC (centres unmarked) [RHY-65] | tested and verified
CCC1CN2CCC3(C(=O)N(CCCCCCCl)c4ccccc43)C2CC1C(=COC)C(=O)OC (centres unmarked) [RHY-63] | tested and verified
CCC1CN2CCC3(C(=O)N(CCCCCCCCCCCCCl)c4ccccc43)C2CC1C(=COC)C(=O)OC (centres unmarked) [RHY-67] | tested and verified
CCC1CN2CCC3(C(=O)N(CCCCCCCCCCCCl)c4ccccc43)C2CC1C(=COC)C(=O)OC (centres unmarked) [RHY-66] | tested and verified
CCC1CN2CCC3(C(=O)N(CCCCCCCCl)c4ccccc43)C2CC1C(=COC)C(=O)OC (centres unmarked) [RHY-64] | tested and verified
CCC1CN2CCC3(C(=O)N(CCCCCCCCCCl)c4ccccc43)C2CC1C(=COC)C(=O)OC (centres unmarked) [RHY-62] | tested and verified
